From ChEMBL document CHEMBL1146918, “Synthesis and anti-angiogenesis activity of coumarin derivatives” (Bioorg Med Chem Lett, 2006)

Columns and labels:
U-87 MG = assay: Antiproliferative activity against human U87 MG cell line; format: functional, cell-based, U-87MG ATCC
B16 = assay: Antiproliferative activity against mouse B16 cell line; format: functional, cell-based
HeLa = assay: Antiproliferative activity against human HeLa cell line; format: functional, cell-based
DLD-1 = assay: Antiproliferative activity against human DLD1 cell line; format: functional, cell-based
SiHa = assay: Antiproliferative activity against human SiHa cell line; format: functional, cell-based
NIH3T3 = assay: Antiproliferative activity against mouse NIH3T3 cell line; format: functional, cell-based
HUVEC = assay: Antiproliferative activity against HUVEC cell line; format: functional, cell-based; details: Homo sapiens

Compound	IC50 (U-87 MG) [µM]	IC50 (B16) [µM]	IC50 (HeLa) [µM]	IC50 (DLD-1; read-out: IC50) [µM]	IC50 (DLD-1) [µM]	IC50 (SiHa) [µM]	IC50 (NIH3T3) [µM]	IC50 (HUVEC) [µM]
CCN(CC)c1ccc2cc(-c3nc4ccccc4s3)c(=O)oc2c1	> 70	> 70	> 70	> 70	–	> 70	> 70	> 70
O=Cc1cc2c3c(c1O)CCCN3CCC2	> 70	> 70	> 70	> 70	–	> 70	> 70	35.4
CCN(CC)c1ccc2c(C#N)c(-c3nc4ccccc4s3)c(=O)oc2c1	> 70	> 70	> 70	> 70	–	> 70	> 70	4.8
O=c1oc2c3c4c(cc2cc1[N+](=O)[O-])CCCN4CCC3	> 70	> 70	> 70	> 70	–	> 70	> 70	> 70
CCN(CC)c1ccc2cc(C(C)=O)c(=O)oc2c1	> 70	> 70	> 70	> 70	–	> 70	> 70	> 70

These reach a lower IC50 (U-87 MG). Values come first.

IC50 (U-87 MG) [µM]	IC50 (B16) [µM]	IC50 (HeLa) [µM]	IC50 (DLD-1; read-out: IC50) [µM]	IC50 (DLD-1) [µM]	Compound	IC50 (SiHa) [µM]	IC50 (NIH3T3) [µM]	IC50 (HUVEC) [µM]
33.4	8.9	11.6	35.2	–	O=c1oc2c3c4c(cc2cc1-c1nc2ccccc2[nH]1)CCCN4CCC3	14.6	41.4	3.3
15	12.6	> 70	> 70	–	CCN(CC)c1ccc2cc(-c3nc4ccccc4[nH]3)c(=O)oc2c1	62.1	9.3	9.6
0.08	0.08	0.47	–	0.09	CC(=O)O[C@H]1C(=O)[C@@]2(C)[C@H]([C@H](OC(=O)c3ccccc3)[C@]3(O)C[C@H](OC(=O)[C@H](O)[C@@H](NC(=O)c4ccccc4)c4ccccc4)C(C)=C1C3(C)C)[C@]1(OC(C)=O)CO[C@@H]1C[C@@H]2O [PACLITAXEL]	3.5	1.29	0.06
